Read-outs that look alike come from different tables or passages of the source.
How the values were obtained:
[1] = cited from earlier work
[2] = PK sub-study of IV iloprost infusion (plasma, LC-MS); assay type: in vivo, human; details: for AUC(0-t) / AUC(0-inf) / Vd / half-life: human, plasma; for AUC(0-t): read-out: AUC0-last, Geometric mean (geometric CV %); for AUC(0-inf): read-out: AUC0-inf, Geometric mean (geometric CV %); for Vd: read-out: Vss, Mean (SD)
Description: Eligible subjects were given the option to participate in a PK sub-study. Subjects who participated in the sub-study provided plasma samples for PK analysis. The samples were analyzed for iloprost concentrations using validated liquid chromatography mass spectrometry methods.
The following PK parameters were calculated whenever possible, based on the plasma concentrations of iloprost: • Steady state plasma concentration just before infusion was stopped • Area under the plasma concentration versus time curve (AUC) from time of dosing to the last time point with measurable concentration (AUC0-last) • AUC from time 0 extrapolated to infinity (AUC0-inf) • Percentage of AUC obtained by extrapolation (AUCextrap%) • Terminal elimination constant (λz) • Plasma terminal elimination half-life (t1/2) • Plasma clearance (CL), calculated as dose/AUC0-inf • Volume of distribution (V), calculated as dose/(λz×AUC0-inf)

[3] = Safety and tolerability in the IV iloprost study (adverse events, vital signs, ECG, laboratory); assay type: in vivo, human
Description: On Day 1, study drug was initiated at a starting dose of 0.5 ng/kg/min, and dose increases occurred every 30 minutes (±5 minutes) in increments of 0.5 ng/kg/min up to 2.0 ng/kg/min or the individual tolerated dose. If dose-limiting adverse events (e.g., headache, flushing, jaw pain, myalgia, nausea, or vomiting) occurred that could not be tolerated by the subject, or if the subject experienced symptomatic hypotension, then the dose was reduced in a step-wise manner by 0.5 ng/kg/min every 30 minutes (±5 minutes) until a tolerated dose was determined or the infusion was stopped until the symptoms resolved at which point the study drug was reinitiated at a previously tolerated dose. If symptomatic hypotension or a dose-limiting adverse event occurred during administration of iloprost at the starting dose (i.e., 0.5 ng/kg/min), the infusion was reduced to 0.25 ng/kg/min. If the dose of 0.25 ng/kg/min was not tolerated due to symptomatic hypotension or if a dose-limiting adverse event occurred, the study drug was discontinued, and re-initiation of the infusion could have been attempted after the event had resolved or had been treated. Blood pressure and heart rate were monitored 15 minutes (±5 minutes) prior to and after all dose changes. The maximum tolerated dose was maintained for the remaining 6-hour daily period. At the end of the 6-hour infusion period, the dose was stopped. Subjects were to be monitored for up to 1 hour after completion of study drug infusion (i.e., vital signs were obtained 15 minutes [+5 minutes] and 1 hour [+15 minutes] after completion of the infusion).
Safety parameters included adverse events, physical examination findings, vital sign measurements (heart rate and blood pressure), 12-lead electrocardiogram (ECG) findings, and standard clinical laboratory measurements (chemistry and hematology).

[4] = 1.5 ng/kg, maximum tolerated dose level 1.50 ng/kg/min IV, n = 1
[5] = maximum tolerated dose level 1.00 ng/kg/min IV, n = 1
[6] = maximum tolerated dose level 1.00 ng/kg/min IV, n = 2
[7] = maximum tolerated dose level 2.00 ng/kg/min IV, n = 1
[8] = maximum tolerated dose level 2.00 ng/kg/min IV, n = 4

Structure (SMILES): CC#CCC(C)[C@H](O)/C=C/[C@@H]1[C@H]2C/C(=C/CCCC(=O)O)C[C@H]2C[C@H]1O (stereo partly drawn) [Iloprost, (5E)-5-[(3aS,4R,5R,6aS)-5-hydroxy-4-[(E,3S)-3-hydroxy-4-methyloct-1-en-6-ynyl]-3,3a,4,5,6,6a-hexahydro-1H-pentalen-2-ylidene]pentanoic acid]
- non-compartmental clearance ([1]; 1 ng/kg/min for 45 minutes): 21 mL/min/kg
- non-compartmental clearance ([1]; 2 ng/kg/min for 4 hours): 24 mL/min/kg
- non-compartmental clearance ([1]; 3 ng/kg/min for 45 minutes): 20.6 mL/min/kg
- geometric mean of Css, AUC0-last and AUC0-inf versus dose ([2]; 0.50 to 2.00 ng/kg/min, exception Css and AUC0-last at 1.50 ng/kg/min): increased as dose increased
- AUC(0-t) ([2]; 0.5 ng/kg, maximum tolerated dose level 0.50 ng/kg/min IV, n = 1): 0.116 ng·h/mL
- AUC(0-inf) [2, 4]: 0.603 ng·h/mL
- Vd [2, 4]: 49.3 L
- half-life ([2]; 1.5 ng/kg, maximum tolerated dose level 1.50 ng/kg/min IV, n = 1, read-out: t1/2, Mean (SD) (converted)): 27 min
- AUC(0-t) ([2]; 1.5 ng/kg, maximum tolerated dose level 1.50 ng/kg/min IV, n = 2): 0.203 ng·h/mL
- half-life ([2]; intravenous, range across the 4 dose levels, read-out: mean t½): 22.9 to 28.3 min
- AUC(0-inf) [2, 5]: 0.379 ng·h/mL
- Vd [2, 5]: 62 L
- half-life ([2]; maximum tolerated dose level 1.00 ng/kg/min IV, n = 1, read-out: t1/2, Mean (SD) (converted)): 24.6 min
- AUC(0-t) [2, 6]: 0.315 ng·h/mL
- AUC(0-inf) [2, 7]: 0.701 ng·h/mL
- Vd [2, 7]: 35.5 L
- half-life ([2]; maximum tolerated dose level 2.00 ng/kg/min IV, n = 1, read-out: t1/2, Mean (SD) (converted)): 22.9 min
- AUC(0-t) [2, 8]: 0.478 ng·h/mL
- Css, Geometric mean (geometric CV %) ([2]; maximum tolerated dose level 0.50 ng/kg/min IV, n = 1): 19.60 (NA) pg/mL
- CLss, Mean (SD) [2, 5]: 91.22 (NA) L/h
- Css, Geometric mean (geometric CV %) [2, 6]: 51.31 (20.7) pg/mL
- CLss, Mean (SD) ([2]; maximum tolerated dose level 1.50 ng/kg/min IV, n = 1): 6.01 (NA) L/h
- Css, Geometric mean (geometric CV %) ([2]; maximum tolerated dose level 1.50 ng/kg/min IV, n = 2): 32.90 (284.8) pg/mL
- CLss, Mean (SD) [2, 7]: 64.53 (NA) L/h
- Css, Geometric mean (geometric CV %) [2, 8]: 76.82 (56.9) pg/mL
- TEAE abdominal pain, n [%] ([3]; human, in vivo): 4 [23.5%] subjects
- TEAE flushing, n [%] ([3]; human, in vivo): 5 [29.4%] subjects
- TEAE headache, n [%] ([3]; human, in vivo): 16 [94.1%] subjects
- TEAE nausea, n [%] ([3]; human, in vivo): 11 [64.7%] subjects
- subjects who experienced a TEAE, n (%) ([3]; human, in vivo): 17 (100.0%) subjects
- subjects with TEAEs considered severe by the Investigator, n (%) ([3]; human, in vivo): Two (11.8%) subjects
- bradycardia or tachycardia ([3]; in vivo): no bradycardia or tachycardia reported
- changes in chemistry or hematology laboratory values ([3]; in vivo): no clinically significant changes
- hypertensive or hypotensive events ([3]; in vivo): no hypertensive or hypotensive events reported
- SAE, AESI, TEAE leading to discontinuation of study drug, or TEAE leading to death ([3]; whole study): No subjects experienced

Reference: US20240299414A1, “SUBCUTANEOUS OR INTRAMUSCULAR INJECTION FORMULATIONS OF ILOPROST” (EICOS SCIENCES, INC., priority 2020, published 2024)
